pEC50: −log10 of the molar value.
molecular target: T1, acetylcholine muscarinic M1 receptor (Homo sapiens, UniProt P11229); assay: Muscarinic M1 FLIPR intracellular calcium assay for positive allosteric modulators; assay type: cell-based; conditions: IP = inflection point calculated from FLIPR values; CHOnfat/hM1 cells; 4 min preincubation, then EC20 acetylcholine (3 nM final); read-out: IP Value
T1 construct: expressed in transfected cells; host or cells: CHOnfat (CHO cells; also called CHOK1/hM1)
T1 sequence (P11229 1-460): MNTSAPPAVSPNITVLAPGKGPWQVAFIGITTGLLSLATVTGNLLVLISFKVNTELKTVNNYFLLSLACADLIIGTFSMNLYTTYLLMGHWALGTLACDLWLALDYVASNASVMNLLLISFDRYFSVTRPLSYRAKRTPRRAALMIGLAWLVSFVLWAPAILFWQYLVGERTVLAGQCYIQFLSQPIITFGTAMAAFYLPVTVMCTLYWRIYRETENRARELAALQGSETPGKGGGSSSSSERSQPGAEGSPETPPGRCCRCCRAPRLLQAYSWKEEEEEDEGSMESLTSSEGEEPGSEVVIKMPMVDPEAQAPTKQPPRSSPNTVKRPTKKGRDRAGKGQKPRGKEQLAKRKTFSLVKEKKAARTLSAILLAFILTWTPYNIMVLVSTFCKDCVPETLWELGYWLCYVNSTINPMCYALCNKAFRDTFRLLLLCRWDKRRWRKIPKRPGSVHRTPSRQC
Experimental: The assay studies the effect of one or several concentrations of test compounds on basal or acetylcholine-stimulated Ca^2+ levels using FLIPR.
Compounds are prepared and subjected to a preincubation period of 4 min. Thereafter, a single EC20 concentration of acetylcholine is added to each well (3 nM final). The intracellular Ca^2+ level of each sample is measured and compared to an acetylcholine control to determine any modulatory activity.
Cells: CHOnfat/hM1, hM2, hM3 or hM4 cells are plated 24 hr before the assay at a density of 18,000 cells/well (100 μL) in a 384 well plate. CHOnfat/hM1 and CHOnfat/hM3 Growth Medium: 90% DMEM (Hi Glucose); 10% HI FBS; 2 mM L-glutamine; 0.1 mM NEAA; Pen-Strep; and 1 mg/ml Geneticin, are added. For M2Gqi5CHOnfat and M4Gqi5CHOnfat cells, an additional 600 ug/ml hygromycin is added.
Equipment: 384 well plate, 120 μL addition plate; 96-well Whatman 2 ml Uniplate Incubator, 37° C., 5% CO2; Skatron EMBLA-384 Plate Washer; Multimek Pipetting System; Genesis Freedom 200 System; Mosquito System; Temo Nanolitre Pipetting System; and FLIPR^384 Fluorometric Imaging Plate Reader System are used.
Buffers. Assay Buffer: Hanks Balanced Salt Solution, with 20 mM Hepes, 2.5 mM Probenecid (Sigma P-8761) first dissolved in 1 N NaOH, 1% Bovine Serum Albumin (Sigma A-9647). Dye Loading Buffer: Assay Buffer plus 1% Fetal Bovine Serum and Fluo-4AM/Pluronic Acid Mixture. 2 mM Fluo-4AM ester stock in DMSO (Molecular Probes F-14202) Concentration of 2 μM in buffer for a final concentration of 1 μM in Assay. 20% Pluronic Acid Solution stock, with concentration of 0.04% in Buffer, 0.02% in Assay.
65 μL of 2 mM Fluo-4AM are mixed with 130 μL of 20% Pluronic Acid. The resulting solution and 650 μL FBS is added to the assay buffer for a total volume of 65 mL. Positive Controls: 4-Br-A23187: 10 mM in DMSO; final concentration 10 μM. Acetylcholine: 10 mM in water, working stock at both 20 μM and 30 μM in assay buffer, final concentration of 10 μM. This is used to check the maximum stimulation of the CHOK1/hM1 cells. 20 μM (2×) acetylcholine is added in the preincubation part of the assay, and the 30 μM (3×) stock is added in the second part. (EC20)Acetylcholine: 10 mM in water, working stock of 9 nM (3×), and final concentration in assay is 3 nM. This is used after the preincubation with test compounds. Addition of the EC20 Acetylcholine to each well with a test compound will ascertain any modulator activity. 24 wells contain 3 nM Acetylcholine alone as a control.
Determining Activity of Putative Compounds:
Screening Plate Compounds are titrated in 96-well plates (columns 2-11), 100% DMSO, started at a concentration of 15 mM (150× stock concentration), and 3-fold serial dilutions using Genesis Freedom200 System. Four 96-well plates are combined into a 384-well plate using Mosquito Nanolitre Pipetting System by transferring 1 μl of serial diluted compounds to each well, and 1 mM acetylcholine (100× stock concentration) were added as a control. Using Temo, 49 μl assay buffer is added to each well of the 384-well plate right before assay.
In a 96-well Whatman 2 ml Uniplate, 9 nM Acetylcholine (3×) is pipetted into wells corresponding to the screening compounds, and into control wells. The 30 μM acetylcholine control (3×) is added into control wells, and the 3× agonist plate is transferred into a 384 well plate.
Cells are washed three times with 100 μL of buffer, leaving 30 μL of buffer in each well. Using Multimek, 30 μL of Dye Loading Buffer is added into each well and incubated at 37° C., 5% CO2 for up to one hr.
After 60 min, the cells are washed three times with 100 μL of buffer, leaving 30 μL of buffer in each well. The cell plate, screening plate, and agonist addition plates are placed on the platform in the FLIPR and the door closed. A signal test to check background fluorescence and basal fluorescence signal is performed. Laser intensity is adjusted if necessary. […]

| SMILES | pEC50 |
| --- | --- |
| O=C(N[C@H]1CCCC[C@@H]1O)c1cc(Cc2ccc(Cl)nc2)c2ccccc2[n+]1[O-] [Example 3, 4-[(6-Chloropyridin-3-yl)methyl]-N-[(1S,2S)-2-hydroxycyclohexyl]quinoline-2-carboxamide 1-oxide] | 6.83 |
| Cn1cc(-c2ccc(Cc3cc(C(=O)N[C@H]4CCCC[C@@H]4O)nc4ccccc34)c[n+]2[O-])cn1 [Example 8, N-[(1S,2S)-2-Hydroxycyclohexyl]-4-{[6-(1-methyl-1H-pyrazol-4-yl)-1-oxidopyridin-3-yl]methyl}quinoline-2-carboxamide] | 7.68 |
| O=C(N[C@H]1CCOC[C@@H]1O)c1cc(Cc2ccc(C(F)F)nc2)c2cccc(F)c2n1 [Example 17, 4-{[6-(Difluoromethyl)pyridin-3-yl]methyl}-8-fluoro-N-[(3R,4S)-3-hydroxytetrahydro-2H-pyran-4-yl]quinoline-2-carboxamide] | 7.74 |
| Cc1ccc(Cc2cc(C(=O)N[C@H]3CCCC[C@@H]3O)nc3ccccc23)cn1 [Example 2, N-[(1S,2S)-2-Hydroxycyclohexyl]-4-[(6-methylpyridin-3-yl)methyl]quinoline-2-carboxamide] | 6.84 |
| O=C(N[C@H]1CCCC[C@@H]1O)c1cc(Cc2ccc(Cl)nc2)c2ccccc2n1 [Example 1, 4-[(6-Chloropyridin-3-yl)methyl]-N-[(1S,2S)-2-hydroxycyclohexyl]quinoline-2-carboxamide] | 7.39 |
| CSc1ncc(Cc2cc(C(=O)N[C@H]3CCOC[C@@H]3O)nc3ccccc23)cn1 [Example 14, N-[(3R,4S)-3-Hydroxytetrahydro-2H-pyran-4-yl]-4-{[2-(methylsulfanyl)pyrimidin-5-yl]methyl}quinoline-2-carboxamide] | 6.50 |
| COc1cc(Cc2cc(C(=O)N[C@H]3CCOC[C@@H]3O)nc3c(F)cccc23)ccn1 [Example 22, 8-Fluoro-N-[(3R,4S)-3-hydroxytetrahydro-2H-pyran-4-yl]-4-[(2-methoxypyridin-4-yl)methyl]quinoline-2-carboxamide] | 7.57 |
| O=C(N[C@H]1CCOC[C@@H]1O)c1cc(Cc2ccc(O)nc2)c2cccc(F)c2n1 [Example 20, 8-Fluoro-4-[(6-hydroxypyridin-3-yl)methyl]-N-[(3R,4S)-3-hydroxytetrahydro-2H-pyran-4-yl]quinoline-2-carboxamide] | 7.19 |
| COc1cc(Cc2cc(C(=O)N[C@H]3CCOC[C@@H]3O)nc3c(F)cccc23)cc[n+]1[O-] [Example 23, 8-Fluoro-N-[(3R,4S)-3-hydroxytetrahydro-2H-pyran-4-yl]-4-[(2-methoxy-1-oxidopyridin-4-yl)methyl]quinoline-2-carboxamide] | 6.39 |
| COc1ccc(Cc2cc(C(=O)N[C@H]3CCOC[C@@H]3O)nc3c(F)ccc(F)c23)cn1 [Example 24, 5,8-Difluoro-N-[(3R,4S)-3-hydroxytetrahydro-2H-pyran-4-yl]-4-[(6-methoxypyridin-3-yl)methyl]quinoline-2-carboxamide] | 7.48 |
| COc1ccc(C(F)c2cc(C(=O)N[C@H]3CCOC[C@@H]3O)nc3ccccc23)cn1 (stereo partly drawn) [Example 15, 4-[Fluoro(6-methoxypyridin-3-yl)methyl]-N-[(3R,4S)-3-hydroxytetrahydro-2H-pyran-4-yl]quinoline-2-carboxamide hydrate] | 7.28 |
| O=C(N[C@H]1CCCC[C@@H]1O)c1cc(Cc2ccc(C3CC3)nc2)c2ccccc2n1 [Example 4, 4-[(6-Cyclopropylpyridin-3-yl)methyl]-N-[(1,2)-2-hydroxycyclohexyl]quinoline-2-carboxamide] | 7.41 |

Continued, values first:

| pEC50 | SMILES |
| --- | --- |
| 7.43 | CSc1ccc(Cc2cc(C(=O)N[C@H]3CCCC[C@@H]3O)nc3ccccc23)cn1 [Example 7, N-[(1S,2S)-2-Hydroxycyclohexyl]-4-{[6-(inethylsulfanyl)pyridin-3-yl]methyl}quinoline-2-carboxamide] |
| 8.22 | Cn1cc(-c2ccc(Cc3cc(C(=O)N[C@H]4CCCC[C@@H]4O)nc4ccccc34)cn2)cn1 [Example 5, N-[(1S,2S)-2-Hydroxycyclohexyl]-4-{[6-(1-methyl-1H-pyrazol-4-yl)pyridin-3-yl]methyl}quinoline-2-carboxamide] |
| 7.22 | CCOc1ccc(Cc2cc(C(=O)N[C@H]3CCOC[C@@H]3O)nc3ccccc23)cn1 [Example 12, 4-[(6-Ethoxypyridin-3-yl)methyl]-N-[(3R,4S)-3-hydroxytetrahydro-2H-pyran-4-yl]quinoline-2-carboxamide] |
| 6.61 | COc1ccc(C(F)c2cc(C(=O)N[C@H]3CCOC[C@@H]3O)nc3c(OC)cccc23)cn1 (stereo partly drawn) [Example 18, 4-[Fluoro(6-methoxypyridin-3-yl)methyl]-N-[(3R,4S)-3-hydroxytetrahydro-2H-pyran-4-yl]-8-methoxyquinoline-2-carboxamide] |
| 6.58 | Cn1cc(-c2ccc(Cc3cc(C(=O)N[C@H]4CCCC[C@@H]4F)nc4ccccc34)cn2)cn1 [Example 9, N-[(1S,2S)-2-Fluorocyclohexyl]-4-{[6-(1-methyl-1H-pyrazol-4-yl)pyridin-3-yl]methyl}quinoline-2-carboxamide] |
| 6.68 | COc1ccc(Cc2cc(C(=O)N[C@H]3CCOC[C@@H]3O)nc3c(F)cccc23)c[n+]1[O-] [Example 21, 8-Fluoro-N-[(3R,4S)-3-hydroxytetrahydro-2H-pyran-4-yl]-4-[(6-methoxy-1-oxidopyridin-3-yl)methyl]quinoline-2-carboxamide] |
| 7.34 | COc1cc(Cc2cc(C(=O)N[C@H]3CCOC[C@@H]3O)nc3ccccc23)ccn1 [Example 13, N-[(3R,4S)-3-Hydroxytetrahydro-2H-pyran-4-yl]-4-[(2-methoxypyridin-4-yl)methyl]quinoline-2-carboxamide] |
| 7.77 | Cn1cc(-c2ccc(Cc3cc(C(=O)N[C@H]4COCC[C@@H]4O)nc4ccccc34)cn2)cn1 [Example 10, N-[(3S,4S)-4-Hydroxytetrahydro-2H-pyran-3-yl]-4-{[6-(1-methyl-1H-pyrazol-4-yl)pyridin-3-yl]methyl}quinoline-2-carboxamide] |
| 7.28 | COc1ccc(Cc2cc(C(=O)N[C@H]3CCOC[C@@H]3O)nc3ccccc23)cn1 [Example 11, N-[(3R,4S)-3-Hydroxytetrahydro-2H-pyran-4-yl]-4-[(6-methoxypyridin-3-yl)methyl]quinoline-2-carboxamide] |
| 7.09 | O=C(N[C@H]1CCCC[C@@H]1O)c1cc(Cc2cccnc2)c2ccccc2n1 [Example 6, N-[(1S,2S)-2-Hydroxycyclohexyl]-4-(pyridin-3-ylmethyl)quinoline-2-carboxamide] |
